The target of experiment [1] is T1, TXA2 synthase in human platelet microsomes (Homo sapiens, UniProt P24557).
T1 construct: using microsomal fractions from human platelets as enzyme source; from tissue; host or cells: human platelets, microsomal fraction
T1 sequence (P24557 1-533): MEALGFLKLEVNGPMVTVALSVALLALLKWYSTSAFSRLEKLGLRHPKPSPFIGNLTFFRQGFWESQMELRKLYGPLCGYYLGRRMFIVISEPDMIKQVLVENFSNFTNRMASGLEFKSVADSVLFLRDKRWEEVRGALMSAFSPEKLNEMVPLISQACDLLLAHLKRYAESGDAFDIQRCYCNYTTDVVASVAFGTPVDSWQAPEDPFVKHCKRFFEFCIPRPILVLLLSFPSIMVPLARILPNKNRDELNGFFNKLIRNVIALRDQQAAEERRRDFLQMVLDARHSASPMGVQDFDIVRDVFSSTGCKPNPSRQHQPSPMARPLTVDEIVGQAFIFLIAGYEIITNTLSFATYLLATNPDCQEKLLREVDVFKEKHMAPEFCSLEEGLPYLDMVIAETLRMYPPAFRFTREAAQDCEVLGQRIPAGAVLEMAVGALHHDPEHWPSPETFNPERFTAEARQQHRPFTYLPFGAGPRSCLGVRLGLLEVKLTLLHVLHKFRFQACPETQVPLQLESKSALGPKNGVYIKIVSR
In words: Thromboxane synthase (TXA2 syn.) inhibitory activity. Format: biochemical. Particulars: 10 μM PGH2. The protocol: (d) Assay for Thromboxane Synthase (TXA2 Syn.) Inhibitory Activity
TXA2 syn. activity is measured by following the conversion of ^14 C-prostaglandin endoperoxide (PGH2) to ^14 C-thromboxane A2 (TXA2) using microsomal fractions from human platelets as enzyme source. In the aqueous incubation medium, the TXA2 decomposes rapidly into TXB2. The amount of TXA2 syn. is adjusted so that under the conditions of the assay approximately 80-90% of the substrate, PGH2, is converted to product in control tubes. To prepare ^14 C-PGH2, ^14 C-AA (50-60 mCi/mmole; Rose Chem.) is incubated with sheep seminal vesicular gland microsomes for 1.5 min at 37° and then the ^14 C-PGH2 is extracted with diethylether, purified on columns of Sephadex LH-20 or silicic acid, and stored in acetone at -70° C. Incubations are done as follows. Sufficient ^14 C-PGH2 to yield a final substrate concentration of 10 μM (~30,000 cpm) is added to the incubation tubes and then the acetone is removed under nitrogen. The tubes are placed in an ice bath and then 215 μl of ice cold phosphate buffered saline, 10 μl of ethanol (control) or of test drug in ethanol, and 25 μl of the microsomal suspension are added with mixing in that order as rapidly as possible. The tubes are incubated at 22° for 2 minutes, the reaction is stopped and then the radioactive products and the uncoverted PGH2 are extracted and analyzed by thin layer chromatography. […] The amount of ^14 C-PGH2 converted to products was used as a measure of TXA2 synthase activity. Inhibitors were tested initially at a final concentration of 100 μM.

For experiment [2], the system named is PAF-induced bronchoconstriction. Description: Antagonism of PAF-induced bronchoconstriction in the guinea pig. Particulars: Cavia porcellus, po, 2 hour pretreatment; read-out: ID50 antagonism of PAF-induced bronchoconstriction. Format: in vivo, guinea pig (Hartley strain). The protocol:
(g) Antagonism of PAF and Histamine-induced Bronchoconstriction in Guinea Pig
Spontaneously breathing male guinea pigs (Hartley strain) weighing 300-450 grams are dosed orally with test drug or control vehicle two hours prior to challenge with agonist. The animals are anesthetized with urethane (2 gm/kg) intraperitoneally and the jugular vein and trachea are cannulated. Two hours after dosing, the animal is paralyzed with succinylcholine (1.2 mg/kg, i.v.) and ventilated (Harvard rodent respirator) at 40 breaths/minutes and 2.5 cc tidal volume. Propranolol (0.1 mg/kg, i.v.) is administered and five minutes thereafter the animal is challenged with a constrictory dose of platelet activating factor (10 μg/kg, i.v.) or histamine dihydrochloride (20 μg/kg, i.v.). The change (cm H2 O) between pre and peak ventilatory pressure readings is averaged for three control animals and five drug treated animals. The percent inhibition is calculated from the following formula: (Control-Drug Treated/Control)×100.

Experiment [3] concerns KCl-induced constriction in guinea pig ilea. In words: Antagonism of KCl-induced constriction in guinea pig ilea. The protocol:
(h) Antagonism of KCl-induced Constriction in Guinea Pig Ilea
A 1-1.5 cm segment of guinea pig ileum removed from animals weighing 200-250 g is suspended in an organ bath containing 10 ml of Tyrodes solution with 10^-6 M atropine sulfate and 10^-6 M pyrilamine maleate. The bath is maintained at 37° C. and aerated with a mixture of 95% O2 and 5% CO2. KCl induces isometric constrictions of the ileum at concentrations between 10-30mM. The contractions consist of two phases, an initial fast contraction (the phasic portion), followed by a relaxation down to less intense but more prolonged contraction (the tonic phase). Varying concentrations of test drugs are incubated with the ileum for three minutes prior to KCl-challenge. The drug concentrations, which inhibit by 50% the phasic and tonic portion of the KCl-induced constrictions, are determined (IC50 's).

In experiment [4] the test system is arachidonic acid induced platelet aggregation. In words: Arachidonic acid induced platelet aggregation in vitro. Format: cell-based. Particulars: read-out: AA (IC50, arachidonic acid induced platelet aggregation). How it is done:
(§1) (1) Assay for Platelet Aggregation In Vitro
(§2) The turbidometric method of G. V. R. Born, Nature 194, 927 (1962) is used. Platelet rich plasma (PRP) and platelet poor plasma (PPP) are prepared with 0.38% sodium citrate-treated blood. Speed and time of centrifugation varied with different species; human:160 g for 20 minutes, dog:160 g for 15 minutes, guinea pig and rabbit:160 g for 15 minutes, and rat:230 g for 10 minutes. Aggregation is monitored with a Payton dual channel module or Chronolog lumiaggregometer when the release of ATP is simultaneously measured. 0.45 ml of PRP is added to a cuvette and prewarmed to 37° C. The stimulant (arachidonic acid or synthetic platelet activating factor) is added in volumes of 50 μl; all other agents in 5 μl. Vehicles are added to samples not containing agents. 0 to 100% light transmission is set with PRP and PPP. % aggregation is calculated from the % increase in light transmission at 5 minutes after the addition of the aggregating agent. For inhibition of aggregation studies the inhibitor is added first and preincubated with the platelets for 1 minute with stirring, followed by the stimulant. % inhibition is calculated from the % aggregation with and without the test compound. [formula]

For experiment [5], the system named is platelet activating factor induced platelet aggregation. Description: Platelet activating factor induced platelet aggregation in vitro. Particulars: racemic platelet activating factor; read-out: PAF (IC50, platelet activating factor induced platelet aggregation). Format: cell-based. How it is done:
as §1, §2

Setting [6] is: phasic, read-out: IC50 antagonism of KCl-induced constriction (phasic).
The mark [7] stands for this setting: tonic, read-out: IC50 antagonism of KCl-induced constriction (tonic).

pIC50: −log10 of the molar value. Read-outs that look alike come from different tables or passages of the source. Where only a bound is given, the exact number is not on record here.

The pIC50 is −log10 of the IC50, conventionally taken in molar units. Consider `CC(C)c1ccc2nc3ccc(C(=O)NCCCCCCc4cccnc4)cn3c(=O)c2c1` [Compound C, 2-(1-Methylethyl)-N-[6-(3-pyridyl)hexyl]-11-oxo-11H-pyrido[2,1-b]quinazoline-8-carboxamide], for which the pIC50 was 7.00 in experiment [1]; 5.27 in experiment [3] (setting [6]); 5.62 in experiment [3] (setting [7]); greater than 5.00 in experiment [4]; greater than 5.00 in experiment [5]. For the same compound, the ED50 in experiment [2] is 50 mg/kg.
With `CC(C)c1ccc2nc3ccc(C(=O)NCCCCn4ccnc4)cn3c(=O)c2c1` [Compound A, N-[4-(1H-imidazol-1-yl)butyl]-2-(1-methylethyl)-11-oxo-11H-pyrido[2,1-b]quinazoline-8-carboxamide], the pIC50 in experiment [1] was 6.00 to 7.00; in experiment [3] (setting [6]) it was 4.77; in experiment [3] (setting [7]) it was 5.00; in experiment [4] it was greater than 5.00; in experiment [5], less than 5.00. Also, the ED50 in experiment [2] came out at 13 mg/kg.
For the compound `CC(C)c1ccc2nc3ccc(C(=O)NCCCCc4cccnc4)cn3c(=O)c2c1` [Compound B, 2-(1-methylethyl)-N-[4-(3-pyridyl)butyl]-11-oxo-11H-pyrido[2,1-b]quinazoline-8-carboxamide], the pIC50 in experiment [1] was 6.00 to 7.00; in experiment [3] (setting [6]), 4.89; in experiment [3] (setting [7]) it was 5.10; in experiment [4], greater than 5.00; in experiment [5], greater than 5.00. Besides, the ED50 in experiment [2] was found to be 100 mg/kg.

The values are drawn from patent publication US4551460A, “Pyrido[2,1-b]quinazoline derivatives useful as agents for treatment of allergic conditions and vascular disorders involving thrombosis” (priority 1983, dated 1985).
